Counter-ions that a name gives are not always drawn.
Tests used:
Assay type in all cases: physicochemical
[1] = Solubility in water
Experimental: (§1) The compounds shown in Table 7 were prepared using the same procedures as in Example 16, and each compound was measured for solubilities in 2.5% ethylcellosolve and water to obtain the results shown in Table 7.

[2] = Solubility in 2.5% ethylcellosolve; parameters: key to Solubility in 2.5% ethylcellosolve, 25° C. / Solubility in 2.5% ethylcellosolve, 60° C.: Good: completely soluble; Fair: with small amounts of undissolved portion; Poor: with large amounts of undissolved portion; details: for Solubility in 2.5% ethylcellosolve, 25° C. / Solubility in 2.5% ethylcellosolve, 60° C.: Table 7; for solubility (comparison in words): compared to Comparative Examples 14-16, Table 7
Experimental: as §1

[3] = Solubility of photosensitive agent in polyvinylpyrrolidone/ethylcellosolve solution; details: Table 4; 5 g polyvinylpyrrolidone in 106 g ethylcellosolve; sodium salt (*): solubility varied with crystal form
[4] = Solubility in water; remark: listed apart in the source
[5] = Solubility of photosensitive agent in polyvinylpyrrolidone/ethylcellosolve solution; details: Table 2; 5 g polyvinylpyrrolidone in 106 g ethylcellosolve; sodium salt (*): solubility varied with crystal form
Experimental: The respective Amides synthesized in Examples 1 and 2 in amounts shown in Table 2 are dissolved in a solution comprising 5 g of polyvinylpyrrolidone (average molecular weight: 320,000) dissolved in 106 g of ethylcellosolve,to evaluate their solubility.

[6] = Solubility in ethylcellosolve solution containing 4.5% polyvinylpyrrolidone and compatibility with binder polymers; details: Example 20
Excerpt: A 4,4'-diazidostilbene-2,2'-disulfonic acid aqueous solution was obtained using the same procedures as in Example 15. It was mixed with dibutylamine and the pH value adjusted to 9.0 to deposit crystals. The crystals were filtered, washed with water, and dried to obtain dibutylamine salt of 4,4'-diazidostilbene-2,2'-disulfonic acid (yield: 91.2%).

[7] = listed as Comparative Example 15
[8] = listed as Comparative Example 16

[N-]=[N+]=Nc1ccc(C=Cc2ccc(N=[N+]=[N-])cc2S(=O)(=O)O)c(S(=O)(=O)O)c1 [Example 21]
Solubility in water, 25° C. ([1]; Table 7): 6.5% | Solubility in 2.5% ethylcellosolve, 25° C. [2]: Good | Solubility in 2.5% ethylcellosolve, 60° C. [2]: Good | solubility (comparison in words) [2]: good solubilities

CCCCCN(CCCCC)S(=O)(=O)c1cc(N=[N+]=[N-])ccc1C=Cc1ccc(N=[N+]=[N-])cc1S(=O)(=O)N(CCCCC)CCCCC [Amide No. 15]
Solubility [3]: Good

[N-]=[N+]=Nc1ccc(C=Cc2ccc(N=[N+]=[N-])cc2S(=O)(=O)Nc2ccccc2)c(S(=O)(=O)Nc2ccccc2)c1 [Arylamide B, reference compound]
Solubility [3]: Poor

[N-]=[N+]=Nc1ccc(C=Cc2ccc(N=[N+]=[N-])cc2S(=O)(=O)O)c(S(=O)(=O)O)c1 [Example 22]
Solubility in water, 25° C. ([1]; Table 7): ≥ 10% | Solubility in 2.5% ethylcellosolve, 25° C. [2]: Good | Solubility in 2.5% ethylcellosolve, 60° C. [2]: Good | solubility (comparison in words) [2]: good solubilities

[N-]=[N+]=Nc1ccc(C=Cc2ccc(N=[N+]=[N-])cc2S(=O)(=O)O)c(S(=O)(=O)O)c1 [Example 17, triethylamine salt of 4,4'-diazidostilbene-2,2'-disulfonic acid]
Solubility (water, 25° C.) ([4]; Table 5): ≥ 10%

[N-]=[N+]=Nc1ccc(C=Cc2ccc(N=[N+]=[N-])cc2S(=O)(=O)O)c(S(=O)(=O)O)c1 [Example 16]
Solubility (water, 25° C.) ([4]; Table 5): ≥ 10%

COCCOCCNS(=O)(=O)c1cc(N=[N+]=[N-])ccc1C=Cc1ccc(N=[N+]=[N-])cc1S(=O)(=O)NCCOCCOC [Amide No. 7]
Solubility [5]: Good

CCCNS(=O)(=O)c1cc(N=[N+]=[N-])ccc1C=Cc1ccc(N=[N+]=[N-])cc1S(=O)(=O)NCCC [Lower alkyl amide A, reference compound]
Solubility [3]: Poor

CC1CC(=Cc2ccc(N=[N+]=[N-])cc2S(=O)(=O)O)C(=O)C(=Cc2ccc(N=[N+]=[N-])cc2S(=O)(=O)O)C1 (stereo not shown) [Comparative Example 13, Na salt of 2,6-bis(4'-azidobenzal)-4-methyl-cyclohexanone-2,2'-disulfonic acid, reference compound]
Solubility (water, 25° C.) ([4]; Table 6): 0.9%

CCOCCOS(=O)(=O)c1cc(N=[N+]=[N-])ccc1C=Cc1ccc(N=[N+]=[N-])cc1S(=O)(=O)OCCOCC [Ester B, reference compound]
Solubility [5]: Good

CCCCCCCNS(=O)(=O)c1cc(N=[N+]=[N-])ccc1C=Cc1ccc(N=[N+]=[N-])cc1S(=O)(=O)NCCCCCCC [Amide No. 11]
Solubility [3]: Good

[N-]=[N+]=Nc1ccc(C=Cc2ccc(N=[N+]=[N-])cc2S(=O)(=O)O)c(S(=O)(=O)O)c1 [compound 11, reference compound]
Solubility (water, 25° C.) ([4]; Table 5): 3.0% | Solubility in 2.5% ethylcellosolve, 25° C. [2, 7]: Poor | Solubility in 2.5% ethylcellosolve, 60° C. [2, 7]: Poor

[N-]=[N+]=Nc1ccc(C=Cc2ccc(N=[N+]=[N-])cc2S(=O)(=O)[O-])c(S(=O)(=O)[O-])c1.[Na+].[Na+] [Sodium salt, sodium 4,4'-diazidostilbene-2,2'-disulfonate, reference compound]
Solubility [3]: Fair | Solubility [5]: Fair | Solubility (water, 25° C.) ([4]; Table 5): 3.3% | Solubility in 2.5% ethylcellosolve, 25° C. [2]: Fair | Solubility in 2.5% ethylcellosolve, 60° C. [2]: Good

CCOCCNS(=O)(=O)c1cc(N=[N+]=[N-])ccc1C=Cc1ccc(N=[N+]=[N-])cc1S(=O)(=O)NCCOCC [Amide No. 8]
Solubility [5]: Good

[N-]=[N+]=Nc1ccc(C=Cc2ccc(N=[N+]=[N-])cc2S(=O)(=O)NCCCO)c(S(=O)(=O)NCCCO)c1 [Amide No. 1]
Solubility [5]: Good

CC(C)CNS(=O)(=O)c1cc(N=[N+]=[N-])ccc1C=Cc1ccc(N=[N+]=[N-])cc1S(=O)(=O)NCC(C)C [Amide No. 10]
Solubility [3]: Good

CCCCOS(=O)(=O)c1cc(N=[N+]=[N-])ccc1C=Cc1ccc(N=[N+]=[N-])cc1S(=O)(=O)OCCCC [Ester C, reference compound]
Solubility [3]: Good

[N-]=[N+]=Nc1ccc(C=Cc2ccc(N=[N+]=[N-])cc2S(=O)(=O)Nc2ccccc2)c(S(=O)(=O)Nc2ccccc2)c1 [Arylamide A, reference compound]
Solubility [5]: Poor

[N-]=[N+]=Nc1ccc(C=Cc2ccc(N=[N+]=[N-])cc2S(=O)(=O)NCCO)c(S(=O)(=O)NCCO)c1 [Amide No. 2]
Solubility [5]: Good

[N-]=[N+]=Nc1ccc(C=Cc2ccc(N=[N+]=[N-])cc2S(=O)(=O)NCCOCCO)c(S(=O)(=O)NCCOCCO)c1 [Amide No. 4]
Solubility [5]: Good

[N-]=[N+]=Nc1ccc(C=Cc2ccc(N=[N+]=[N-])cc2S(=O)(=O)O)c(S(=O)(=O)O)c1 [Example 20, dibutylamine salt of 4,4'-diazidostilbene-2,2'-disulfonic acid]
solubility in water (in words) ([4]; Example 20): very low in solubility in water | compatibility with binder polymers [6]: high in compatibility with binder polymers | soluble in an ethylcellosolve solution containing 4.5% polyvinylpyrrolidone [6]: ≥ 5%

CC(CCO)NS(=O)(=O)c1cc(N=[N+]=[N-])ccc1C=Cc1ccc(N=[N+]=[N-])cc1S(=O)(=O)NC(C)CCO (stereo not shown) [Amide No. 3]
Solubility [5]: Good

[N-]=[N+]=Nc1ccc(C=Cc2ccc(N=[N+]=[N-])cc2S(=O)(=O)O)c(S(=O)(=O)O)c1 [Ammonium salt, reference compound]
Solubility [3]: Poor | Solubility [5]: Poor | Solubility (water, 25° C.) ([4]; Table 5, listed as Comparative Example 12): 1.8% | Solubility in water, 25° C. ([1]; Table 7, listed as Comparative Example 16): 18% | Solubility in 2.5% ethylcellosolve, 25° C. [2, 8]: Poor | Solubility in 2.5% ethylcellosolve, 60° C. [2, 8]: Poor

CC1CC(=Cc2ccc(N=[N+]=[N-])cc2S(=O)(=O)O)C(=O)C(=Cc2ccc(N=[N+]=[N-])cc2S(=O)(=O)O)C1 (stereo not shown) [Example 18]
Solubility (water, 25° C.) ([4]; Table 6): 7.0%

CCCCCCCCNS(=O)(=O)c1cc(N=[N+]=[N-])ccc1C=Cc1ccc(N=[N+]=[N-])cc1S(=O)(=O)NCCCCCCCC [Amide No. 9]
Solubility [3]: Good

CCCCN(C)S(=O)(=O)c1cc(N=[N+]=[N-])ccc1C=Cc1ccc(N=[N+]=[N-])cc1S(=O)(=O)N(C)CCCC [Amide No. 14]
Solubility [3]: Good

CC1CC(=Cc2ccc(N=[N+]=[N-])cc2S(=O)(=O)O)C(=O)C(=Cc2ccc(N=[N+]=[N-])cc2S(=O)(=O)O)C1 (stereo not shown) [Example 19, triethylamine salt of 2,6-bis-(4'-azidobenzal)-4-methyl-cyclohexanone-2,2'-disulfonic acid]
Solubility (water, 25° C.) ([4]; Table 6): ≥ 10%

Source: patent US5041570A, “Photosensitive 4,4'-diazidostilbene derivative” (priority 1988, dated 1991)
